Results taken from ChEMBL document CHEMBL4507293 (2021).

How the values were obtained:
[1] = molecular target: Alpha-2A adrenergic receptor (Homo sapiens) (UniProt P08913); details: Compound concentration 10.0 uM
[2] = molecular target: Somatostatin receptor type 2 (Homo sapiens) (UniProt P30874); assay: Somatostatin sst2 Eurofins-Panlabs radioligand binding assay; design: ligand concentration 0.03 nM; details: Compound concentration 10.0 uM
Rattus norvegicus [3] = organism: Rattus norvegicus; assay: Inhibition of Glycine, Strychnine-Sensitive at 10 µM in the Eurofins-Panlabs radioligand binding assay (Eurofins_assay_239000); details: Compound concentration 10.0 uM
[4] = molecular target: Peroxisome proliferator-activated receptor gamma (Homo sapiens) (UniProt P37231); assay: PPARgamma Eurofins-Panlabs radioligand binding assay; design: ligand concentration 5 nM, non-specific ligand with concentration 0.5 µM L-797773, incubation time 18 h, incubation temperature 15 °C; details: Compound concentration 10.0 uM
[5] = molecular target: D(2) dopamine receptor (Homo sapiens) (UniProt P14416); details: Compound concentration 10.0 uM
[6] = molecular target: T1, Alpha-1A adrenergic receptor (Homo sapiens) (UniProt P35348); details: Rattus norvegicus; Compound concentration 10.0 uM
T1 sequence (whole entry): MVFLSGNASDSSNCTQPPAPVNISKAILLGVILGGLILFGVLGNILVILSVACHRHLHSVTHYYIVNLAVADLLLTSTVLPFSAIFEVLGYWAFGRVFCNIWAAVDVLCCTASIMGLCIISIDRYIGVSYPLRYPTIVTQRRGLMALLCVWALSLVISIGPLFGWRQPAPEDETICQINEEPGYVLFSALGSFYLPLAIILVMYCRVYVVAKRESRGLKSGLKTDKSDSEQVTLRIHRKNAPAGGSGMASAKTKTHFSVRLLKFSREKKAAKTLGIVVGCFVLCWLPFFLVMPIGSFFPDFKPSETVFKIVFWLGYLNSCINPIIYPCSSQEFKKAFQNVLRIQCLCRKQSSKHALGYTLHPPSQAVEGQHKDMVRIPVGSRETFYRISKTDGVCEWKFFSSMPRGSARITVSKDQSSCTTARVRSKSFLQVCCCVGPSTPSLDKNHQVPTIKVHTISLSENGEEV

[7] = molecular target: Beta-1 adrenergic receptor (Homo sapiens) (UniProt P08588); details: Compound concentration 10.0 uM
[8] = molecular target: Muscarinic acetylcholine receptor M3 (Homo sapiens) (UniProt P20309); details: Compound concentration 10.0 uM
[9] = molecular target: Acetylcholinesterase (Homo sapiens) (UniProt P22303); details: Compound concentration 10.0 uM
[10] = molecular target: Type-1 angiotensin II receptor (Homo sapiens) (UniProt P30556); assay: Angiotensin AT1 Eurofins-Panlabs radioligand binding assay; details: Compound concentration 10.0 uM
Rattus norvegicus [11] = organism: Rattus norvegicus; details: Compound concentration 10.0 uM

Measured: inhibition

Sequence of Somatostatin receptor type 2 (Homo sapiens) (P30874 whole entry): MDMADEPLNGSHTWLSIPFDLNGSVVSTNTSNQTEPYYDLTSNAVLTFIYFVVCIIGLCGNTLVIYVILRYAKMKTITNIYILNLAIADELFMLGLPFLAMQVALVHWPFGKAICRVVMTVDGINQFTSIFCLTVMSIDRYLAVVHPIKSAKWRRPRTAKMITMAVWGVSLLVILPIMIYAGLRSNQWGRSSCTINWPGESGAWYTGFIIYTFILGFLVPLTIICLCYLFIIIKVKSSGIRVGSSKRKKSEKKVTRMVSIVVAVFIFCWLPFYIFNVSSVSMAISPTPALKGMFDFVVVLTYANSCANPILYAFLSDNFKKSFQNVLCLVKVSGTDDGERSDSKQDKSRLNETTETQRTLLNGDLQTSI
Sequence of Acetylcholinesterase (Homo sapiens) (P22303 whole entry): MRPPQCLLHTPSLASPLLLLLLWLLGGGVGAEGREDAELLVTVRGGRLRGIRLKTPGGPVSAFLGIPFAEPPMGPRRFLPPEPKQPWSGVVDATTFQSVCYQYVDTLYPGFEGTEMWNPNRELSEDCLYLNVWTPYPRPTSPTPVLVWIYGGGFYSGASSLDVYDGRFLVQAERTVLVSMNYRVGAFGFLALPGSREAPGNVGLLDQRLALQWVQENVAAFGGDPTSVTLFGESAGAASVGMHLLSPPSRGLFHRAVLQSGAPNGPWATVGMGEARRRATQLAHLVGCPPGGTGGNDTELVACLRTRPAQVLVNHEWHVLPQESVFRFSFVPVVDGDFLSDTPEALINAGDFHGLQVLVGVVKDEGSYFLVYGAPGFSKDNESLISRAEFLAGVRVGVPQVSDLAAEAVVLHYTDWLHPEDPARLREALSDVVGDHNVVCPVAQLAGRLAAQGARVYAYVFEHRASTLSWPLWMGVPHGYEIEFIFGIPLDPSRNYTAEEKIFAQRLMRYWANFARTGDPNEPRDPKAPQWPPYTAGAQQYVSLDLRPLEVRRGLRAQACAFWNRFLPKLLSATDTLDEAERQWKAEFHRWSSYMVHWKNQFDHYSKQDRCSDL
Sequence of Type-1 angiotensin II receptor (Homo sapiens) (P30556 whole entry): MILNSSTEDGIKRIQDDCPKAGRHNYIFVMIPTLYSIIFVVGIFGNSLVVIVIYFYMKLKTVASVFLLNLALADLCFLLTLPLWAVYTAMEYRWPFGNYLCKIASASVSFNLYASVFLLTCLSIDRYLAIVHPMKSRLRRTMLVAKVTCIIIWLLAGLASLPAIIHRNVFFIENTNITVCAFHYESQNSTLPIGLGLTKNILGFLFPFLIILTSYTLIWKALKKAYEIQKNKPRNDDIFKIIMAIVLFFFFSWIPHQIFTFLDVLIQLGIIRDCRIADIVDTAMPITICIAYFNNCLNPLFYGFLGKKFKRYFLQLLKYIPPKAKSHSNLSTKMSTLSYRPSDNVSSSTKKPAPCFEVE
Sequence of Beta-1 adrenergic receptor (Homo sapiens) (P08588 whole entry, looked up): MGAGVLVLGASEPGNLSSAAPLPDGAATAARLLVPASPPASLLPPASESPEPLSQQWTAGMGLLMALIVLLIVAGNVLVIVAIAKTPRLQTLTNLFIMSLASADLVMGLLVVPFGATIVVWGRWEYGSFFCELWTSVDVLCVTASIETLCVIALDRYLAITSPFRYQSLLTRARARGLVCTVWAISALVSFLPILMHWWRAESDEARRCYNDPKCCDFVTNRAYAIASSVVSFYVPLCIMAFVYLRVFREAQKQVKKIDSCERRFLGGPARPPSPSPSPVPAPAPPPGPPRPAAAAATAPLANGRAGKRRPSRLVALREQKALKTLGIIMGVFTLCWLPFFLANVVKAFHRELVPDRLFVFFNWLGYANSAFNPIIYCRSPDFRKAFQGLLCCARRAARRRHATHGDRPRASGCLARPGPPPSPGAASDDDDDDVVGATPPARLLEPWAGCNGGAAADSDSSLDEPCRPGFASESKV
Sequence of Peroxisome proliferator-activated receptor gamma (Homo sapiens) (P37231 whole entry): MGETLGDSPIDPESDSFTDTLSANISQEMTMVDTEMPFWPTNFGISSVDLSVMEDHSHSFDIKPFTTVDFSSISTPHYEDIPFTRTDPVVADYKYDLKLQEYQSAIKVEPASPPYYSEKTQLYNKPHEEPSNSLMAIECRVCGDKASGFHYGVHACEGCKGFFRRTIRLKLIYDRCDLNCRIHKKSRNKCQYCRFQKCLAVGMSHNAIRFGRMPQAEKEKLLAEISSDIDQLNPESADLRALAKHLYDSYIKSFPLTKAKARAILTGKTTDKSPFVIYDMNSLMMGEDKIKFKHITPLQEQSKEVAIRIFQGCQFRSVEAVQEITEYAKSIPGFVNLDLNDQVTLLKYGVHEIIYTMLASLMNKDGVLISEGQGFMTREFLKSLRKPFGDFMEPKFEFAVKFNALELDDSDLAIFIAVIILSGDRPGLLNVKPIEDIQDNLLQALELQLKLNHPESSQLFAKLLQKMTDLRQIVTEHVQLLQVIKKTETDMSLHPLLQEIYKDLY
Sequence of Alpha-2A adrenergic receptor (Homo sapiens) (P08913 whole entry): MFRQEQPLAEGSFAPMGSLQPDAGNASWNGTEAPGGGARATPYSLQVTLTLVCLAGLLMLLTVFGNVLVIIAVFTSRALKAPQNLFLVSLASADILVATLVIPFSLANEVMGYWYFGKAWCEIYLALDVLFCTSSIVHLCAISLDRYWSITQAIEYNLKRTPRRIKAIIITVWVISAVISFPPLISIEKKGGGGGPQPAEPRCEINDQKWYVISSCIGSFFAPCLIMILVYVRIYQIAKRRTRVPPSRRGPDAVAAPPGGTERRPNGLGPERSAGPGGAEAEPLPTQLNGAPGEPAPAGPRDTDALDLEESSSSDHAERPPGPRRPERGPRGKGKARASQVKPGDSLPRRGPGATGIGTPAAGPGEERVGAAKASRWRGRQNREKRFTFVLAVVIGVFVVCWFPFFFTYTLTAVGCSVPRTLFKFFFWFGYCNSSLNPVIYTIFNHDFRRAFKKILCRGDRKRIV
Sequence of D(2) dopamine receptor (Homo sapiens) (P14416 whole entry): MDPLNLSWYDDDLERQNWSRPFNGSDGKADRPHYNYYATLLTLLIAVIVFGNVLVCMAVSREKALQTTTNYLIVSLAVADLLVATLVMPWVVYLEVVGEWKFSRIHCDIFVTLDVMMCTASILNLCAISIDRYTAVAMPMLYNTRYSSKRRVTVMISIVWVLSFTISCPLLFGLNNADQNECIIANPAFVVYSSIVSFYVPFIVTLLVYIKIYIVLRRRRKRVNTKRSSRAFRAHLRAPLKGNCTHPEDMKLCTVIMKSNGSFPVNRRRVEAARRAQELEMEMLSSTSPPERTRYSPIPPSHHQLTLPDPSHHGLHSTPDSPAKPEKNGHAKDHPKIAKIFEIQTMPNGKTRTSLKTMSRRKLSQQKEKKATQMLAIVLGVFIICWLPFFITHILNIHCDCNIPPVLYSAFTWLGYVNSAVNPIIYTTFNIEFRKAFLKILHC
Sequence of Muscarinic acetylcholine receptor M3 (Homo sapiens) (P20309 whole entry, looked up): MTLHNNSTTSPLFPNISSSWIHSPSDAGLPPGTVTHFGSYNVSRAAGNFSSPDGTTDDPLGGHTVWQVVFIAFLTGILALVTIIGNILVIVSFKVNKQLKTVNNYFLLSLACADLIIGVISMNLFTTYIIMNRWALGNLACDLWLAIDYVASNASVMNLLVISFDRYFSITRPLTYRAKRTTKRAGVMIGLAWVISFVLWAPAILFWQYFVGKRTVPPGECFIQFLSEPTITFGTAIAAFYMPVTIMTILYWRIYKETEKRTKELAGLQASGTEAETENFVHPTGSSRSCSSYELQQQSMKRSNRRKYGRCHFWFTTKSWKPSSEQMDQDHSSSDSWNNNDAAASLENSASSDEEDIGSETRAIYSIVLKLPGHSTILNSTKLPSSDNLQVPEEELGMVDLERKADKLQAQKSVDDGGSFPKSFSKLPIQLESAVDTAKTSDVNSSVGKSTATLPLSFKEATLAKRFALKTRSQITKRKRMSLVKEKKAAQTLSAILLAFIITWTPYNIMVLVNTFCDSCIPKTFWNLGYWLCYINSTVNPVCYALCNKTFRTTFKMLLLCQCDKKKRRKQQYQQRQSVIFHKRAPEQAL

CC(C)CC(=O)N1CCc2nc(-c3ccc(Br)cc3)nc(N(C)Cc3ccccc3)c2C1 [THPP-1-NC]
inactive: [1] 48.4%

COCCOc1nc(-c2ccc(Cl)nc2)nc2c1CN(C(=O)c1ncn3ccccc13)CC2 [THPP-1]
inactive: [2] 0% | Rattus norvegicus [3] 15% | [4] -4% | [5] 3% | [6] 9% | [7] -3% | [8] -6% | [9] -1% | [10] 3% | Rattus norvegicus [11] -9%
